Experimental data published in ChEMBL document CHEMBL1201862, “PubChem BioAssay data set” (2004).
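Method: 48-hour compound exposure of cells in 96-well plates, five concentrations, linear interpolation of endpoints. The concentration for 50% growth inhibition is given as GI50.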 Active and inactive are the calls of the source. No stated cut-off is given here; in the data, active = GI50 up to about 1.1 µM and inactive = higher.

Columns and labels:
Assay in all cases: NCI-60 cell line screen, 48 h
[1] = test system: A498
[2] = test system: BT-549
[3] = test system: CAKI-1
[4] = test system: COLO 205
[5] = test system: HCT-15
[6] = test system: HT-29
[7] = test system: NCI-H460
[8] = test system: NCI/ADR-RES
[9] = test system: OVCAR-4
[10] = test system: OVCAR-5
[11] = test system: PC-3
[12] = test system: SF-268
[13] = test system: SK-OV-3
[14] = test system: SNB-19
[15] = test system: SNB-75
[16] = test system: TK-10
[17] = test system: UACC-62
[18] = test system: CCRF-CEM
[19] = test system: HL-60
[20] = test system: SR

Structure (SMILES): COc1ccc([C@H]2C=C(c3cc(F)c(Cl)cc3Cl)N=c3s/c(=C\c4ccc(-c5ccc(Cl)cc5Cl)o4)c(=O)n32)cc1
- GI50 [1]: 2.48 µM (inactive)
- GI50 [2]: 47.2 µM (inactive)
- GI50 [3]: 80.5 µM (inactive)
- GI50 [4]: 80 µM (inactive)
- GI50 [5]: 33.8 µM
- GI50 [6]: 37.2 µM (inactive)
- GI50 [7]: 48.4 µM (inactive)
- GI50 [8]: 44.5 µM (inactive)
- GI50 [9]: 37.3 µM (inactive)
- GI50 [10]: 39.4 µM (inactive)
- GI50 [11]: 99.3 µM (inactive)
- GI50 [12]: 35.6 µM (inactive)
- GI50 [13]: 21.5 µM (inactive)
- GI50 [14]: 31.9 µM (inactive)
- GI50 [15]: 38.4 µM (inactive)
- GI50 [16]: 12.1 µM (inactive)
- GI50 [17]: 25.5 µM (inactive)

Structure (SMILES): COc1ccc(NC(=O)CC(=O)NN)cc1
- GI50 [2]: > 100 µM (inactive)
- GI50 [3]: > 100 µM (inactive)
- GI50 [18]: > 100 µM (inactive)
- GI50 [4]: > 100 µM (inactive)
- GI50 [5]: > 100 µM
- GI50 [19]: > 100 µM (inactive)
- GI50 [6]: > 100 µM (inactive)
- GI50 [7]: > 100 µM (inactive)
- GI50 [8]: > 100 µM (inactive)
- GI50 [9]: > 100 µM (inactive)
- GI50 [10]: > 100 µM (inactive)
- GI50 [11]: > 100 µM (inactive)
- GI50 [12]: > 100 µM (inactive)
- GI50 [13]: > 100 µM (inactive)
- GI50 [14]: > 100 µM (inactive)
- GI50 [15]: > 100 µM (inactive)
- GI50 [20]: > 100 µM (inactive)
- GI50 [16]: > 100 µM (inactive)
- GI50 [17]: > 100 µM (inactive)

Structure (SMILES): CCOC(=O)c1cc(-c2ccc(OC)cc2)c([N+](=O)[O-])n1C
- GI50 [2]: > 10 µM (inactive)
- GI50 [18]: > 10 µM (inactive)
- GI50 [5]: > 10 µM
- GI50 [19]: > 10 µM (inactive)
- GI50 [6]: > 10 µM (inactive)
- GI50 [7]: > 10 µM (inactive)
- GI50 [8]: > 10 µM (inactive)
- GI50 [9]: > 10 µM (inactive)
- GI50 [10]: > 10 µM (inactive)
- GI50 [12]: > 10 µM (inactive)
- GI50 [14]: > 10 µM (inactive)
- GI50 [15]: > 10 µM (inactive)
- GI50 [20]: 9.1 µM (inactive)
- GI50 [17]: > 10 µM (inactive)

Structure (SMILES): CC1=CCC[C@@](C)(O)[C@@H]2C[C@H]3C(CSc4ccccc4)C(=O)O[C@H]3[C@@H](O2)[C@H](C)CCC1 (some centres undefined)
- GI50 [1]: 18 µM (inactive)
- GI50 [2]: 22.7 µM (inactive)
- GI50 [3]: 25.1 µM (inactive)
- GI50 [18]: > 100 µM (inactive)
- GI50 [4]: 18.1 µM (inactive)
- GI50 [5]: 19 µM
- GI50 [19]: > 100 µM (inactive)
- GI50 [7]: 6.1 µM (inactive)
- GI50 [9]: 19.8 µM (inactive)
- GI50 [10]: 15.9 µM (inactive)
- GI50 [11]: 6.62 µM (inactive)
- GI50 [12]: 34 µM (inactive)
- GI50 [13]: 21.5 µM (inactive)
- GI50 [14]: 13.2 µM (inactive)
- GI50 [15]: 13.6 µM (inactive)
- GI50 [20]: 6.35 µM (inactive)
- GI50 [16]: 17.3 µM (inactive)
- GI50 [17]: 14.8 µM (inactive)

Structure (SMILES): O=C(Nc1ccccc1)N1N=C(c2ccccc2)C1c1ccccc1 (centres undefined)
- GI50 [1]: 18.5 µM (inactive)
- GI50 [2]: 23.2 µM (inactive)
- GI50 [3]: 30.2 µM (inactive)
- GI50 [4]: 41.7 µM (inactive)
- GI50 [5]: 33.8 µM
- GI50 [19]: 21.9 µM (inactive)
- GI50 [6]: 20.5 µM (inactive)
- GI50 [7]: 42.3 µM (inactive)
- GI50 [8]: 26.4 µM (inactive)
- GI50 [9]: 41.1 µM (inactive)
- GI50 [10]: 23.2 µM (inactive)
- GI50 [11]: 18.8 µM (inactive)
- GI50 [12]: 21.1 µM (inactive)
- GI50 [13]: 90.8 µM (inactive)
- GI50 [14]: 27.7 µM (inactive)
- GI50 [15]: 15.8 µM (inactive)
- GI50 [16]: 36.1 µM (inactive)
- GI50 [17]: 20.2 µM (inactive)

Structure (SMILES): O=c1[nH]c2c(c(=O)[nH]1)SC(c1ccccc1)C2 (centres undefined)
- GI50 [1]: > 100 µM (inactive)
- GI50 [2]: > 100 µM (inactive)
- GI50 [3]: > 100 µM (inactive)
- GI50 [18]: > 100 µM (inactive)
- GI50 [4]: > 100 µM (inactive)
- GI50 [5]: > 100 µM
- GI50 [19]: > 100 µM (inactive)
- GI50 [6]: > 100 µM (inactive)
- GI50 [7]: > 100 µM (inactive)
- GI50 [8]: > 100 µM (inactive)
- GI50 [9]: > 100 µM (inactive)
- GI50 [10]: > 100 µM (inactive)
- GI50 [11]: > 100 µM (inactive)
- GI50 [12]: > 100 µM (inactive)
- GI50 [14]: > 100 µM (inactive)
- GI50 [15]: 86.9 µM (inactive)

Structure (SMILES): C=C1C(NC)CCC23CC24CCC2(C)C(C(C)=O)C(O)CC2(C)C4CCC13 (centres undefined)
- GI50 [1]: > 100 µM (inactive)
- GI50 [2]: 64.3 µM (inactive)
- GI50 [3]: > 100 µM (inactive)
- GI50 [18]: 54.8 µM (inactive)
- GI50 [4]: > 100 µM (inactive)
- GI50 [5]: > 100 µM
- GI50 [19]: 62.7 µM (inactive)
- GI50 [6]: 21.9 µM (inactive)
- GI50 [7]: > 100 µM (inactive)
- GI50 [8]: > 100 µM (inactive)
- GI50 [9]: > 100 µM (inactive)
- GI50 [10]: > 100 µM (inactive)
- GI50 [11]: 78 µM (inactive)
- GI50 [12]: > 100 µM (inactive)
- GI50 [13]: 59.7 µM (inactive)
- GI50 [14]: > 100 µM (inactive)
- GI50 [15]: 49.4 µM (inactive)
- GI50 [16]: > 100 µM (inactive)
- GI50 [17]: > 100 µM (inactive)

Structure (SMILES): CN1C(C(=O)Nc2ccccn2)=C(O)c2ccccc2S1(=O)=O [PIROXICAM]
- GI50 [2]: 15.3 µM (inactive)
- GI50 [3]: > 100 µM (inactive)
- GI50 [18]: > 100 µM (inactive)
- GI50 [4]: > 100 µM (inactive)
- GI50 [5]: > 100 µM
- GI50 [19]: > 100 µM (inactive)
- GI50 [6]: > 100 µM (inactive)
- GI50 [8]: > 100 µM (inactive)
- GI50 [9]: > 100 µM (inactive)
- GI50 [10]: > 100 µM (inactive)
- GI50 [11]: > 100 µM (inactive)
- GI50 [12]: > 100 µM (inactive)
- GI50 [13]: > 100 µM (inactive)
- GI50 [14]: > 100 µM (inactive)
- GI50 [15]: > 100 µM (inactive)
- GI50 [20]: > 100 µM (inactive)
- GI50 [16]: > 100 µM (inactive)
- GI50 [17]: > 100 µM (inactive)
